In US20090298825A1, “Bicycloheteroaryl Compounds as P2x7 Modulators and Uses Thereof” (priority 2006, published 2009) one finds inhibition and IC50 data, which are given here for 55 molecules.

The assay has as its target T1, P2X7 receptor (Homo sapiens, UniProt Q99572).
T1 construct: endogenous in cells; host or cells: THP-1 cells differentiated with LPS and IFN-γ
T1 sequence (Q99572 1-595): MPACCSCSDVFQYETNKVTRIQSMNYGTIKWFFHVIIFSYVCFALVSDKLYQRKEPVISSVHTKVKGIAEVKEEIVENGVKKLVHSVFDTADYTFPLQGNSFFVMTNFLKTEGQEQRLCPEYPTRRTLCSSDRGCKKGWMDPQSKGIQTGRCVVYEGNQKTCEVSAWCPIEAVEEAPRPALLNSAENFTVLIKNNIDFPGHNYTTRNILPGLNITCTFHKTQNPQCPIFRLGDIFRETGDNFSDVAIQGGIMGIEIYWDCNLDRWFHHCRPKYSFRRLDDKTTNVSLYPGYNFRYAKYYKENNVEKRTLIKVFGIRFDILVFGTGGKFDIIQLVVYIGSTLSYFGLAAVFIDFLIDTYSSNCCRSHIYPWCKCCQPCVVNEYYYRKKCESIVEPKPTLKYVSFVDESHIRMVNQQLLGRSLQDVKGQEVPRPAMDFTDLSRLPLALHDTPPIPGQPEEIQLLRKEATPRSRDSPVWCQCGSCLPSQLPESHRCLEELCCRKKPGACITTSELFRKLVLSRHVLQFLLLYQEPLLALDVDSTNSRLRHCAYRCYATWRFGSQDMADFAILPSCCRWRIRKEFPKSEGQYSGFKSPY
As to the kind of experiment: IL-1β release assay in differentiated THP-1 cells stimulated with BzATP (Example 9). It counts as cell-based. Particulars: for inhibition at 0.3 µM: 0.3 μM concentration; for inhibition at 0.3 µM / inhibition at 0.1 µM: read-out: IL-1β % Inhib. @ 0.3 or 0.1 μM; for IC50: four parameter logistic fit, read-out: IL-1β IC50; for inhibition at 0.1 µM: 0.1 μM concentration. The protocol: The cells are then pretreated for 30 minutes with the compound of interest at the appropriate concentration in RPMI media containing 100 IU/mL penicillin, 100 ug/mL streptomycin. […] 30 uL of cell supernatant is then collected and IL-1β levels determined via ELISA (R&D systems Cat. # HSLB50) according to manufacturer's recommendations using the Tecan Safire plate reader. Background adjusted IL-1β levels of drug treated and non-treated cells are used to calculate the percent inhibition.
The compounds set forth in Table 1 were tested for activity in a cellular model as described herein. […] Measurements were made and IC50 values, presented in Table 2, below, were determined by fitting the data to a four parameter logistic equation using GraphPad Prism software (GraphPad Software, Inc). The equation may be expressed by the following formula:
Y=Bottom+(Top-Bottom)/(1+10̂((Log EC50−X)*HillSlope))
Where X is the logarithm of concentration, Y is the response and Y starts at Bottom and goes to Top with a sigmoid shape.

As for `Cc1ccc(-n2ccc3c(NC(=O)CC45CC6CC(CC(C6)C4)C5)cccc3c2=O)c(C)n1` [ID 703], the inhibition at 0.3 µM is above 76% and the IC50 amounted to 13.2 nM.
`CCOC(=O)N1CCC(n2ccc3c(NC(=O)Cc4cc(C)ccc4C)cccc3c2=O)CC1` [ID 755]: the inhibition at 0.1 µM fell in the range of 0 to 25%.
`CCOC(=O)N1CCC(n2ccc3c(NC(=O)c4ccc(OCC)cc4)cccc3c2=O)CC1` [ID 771]: the inhibition at 0.1 µM fell in the range of 0 to 25%.
On to `CCOC(=O)N1CCC(n2ccc3c(NC(=O)CCc4ccccc4OC)cccc3c2=O)CC1` [ID 775], for which the inhibition at 0.1 µM fell in the range of 0 to 25%.
The same measure, in the same setting: to `CCOC(=O)N1CCC(n2ccc3c(NC(=O)c4ccccc4Cl)cccc3c2=O)CC1` [ID 761] belongs 0 to 25%.
For the molecule `CC(C(=O)Nc1cccc2c(=O)n(C3CCNC3)ccc12)c1ccc(Cl)c(Cl)c1` (stereo not shown) [ID 831], the inhibition at 0.3 µM lay within 51 to 75% and the IC50 is 154 nM.
Regarding `CCOC(=O)N1CCC(n2ccc3c(NC(=O)[C@H]4CC[C@H](C)CC4)cccc3c2=O)CC1` [ID 750], the inhibition at 0.1 µM fell in the range of 0 to 25%.
In the case of `COc1ccc(CC(=O)Nc2cccc3c(=O)n(-c4cc(C)on4)ccc23)c(OC)c1` [ID 739], the inhibition at 0.1 µM was 0 to 25%.
The same measure, in the same setting: to `Cc1cc(C)cc(CC(=O)Nc2cccc3c(=O)n(-c4cc(C)on4)ccc23)c1` [ID 737] belongs 0 to 25%.
On to `O=C(CC12CC3CC(CC(C3)C1)C2)Nc1cccc2c(=O)n(-c3cccnc3N3CCOCC3)ccc12` [ID 712], for which the inhibition at 0.3 µM is above 76% and the 50% inhibitory concentration (IC50) turned out to be 0.384 nM.
For the molecule `CCOC(=O)N1CCC(n2ccc3c(NC(=O)c4ccc(Cl)cc4Cl)cccc3c2=O)CC1` [ID 762], the inhibition at 0.1 µM is 0 to 25%.
Turning to `C[C@H](C(=O)Nc1cccc2c(=O)n(C3CC3)ccc12)c1ccc(Cl)cc1` [ID 894], the inhibition at 0.3 µM is above 76% and the concentration for half-maximal inhibition (IC50) came to 31.9 nM.
In the case of `Cc1ncccc1-n1ccc2c(NC(=O)Cc3cc(F)c(F)c(F)c3)cccc2c1=O` [ID 866], the inhibition at 0.3 µM lay within 51 to 75% and the half-maximal inhibitory concentration (IC50) was 98.5 nM.
For `COc1ccccc1CC(=O)Nc1cccc2c(=O)n(-c3cc(C)on3)ccc12` [ID 727], the inhibition at 0.1 µM lay in the range of 0 to 25%.
As to `O=C(Cc1ccc(Cl)c(C(F)(F)F)c1)Nc1cccc2c(=O)n(C3CC3)ccc12` [ID 890], the inhibition at 0.3 µM is above 76% and the IC50 is 4.33 nM.
For `Cc1ccc2c(=O)n([C@H]3CCNC3)ccc2c1NC(=O)Cc1ccc(C(F)(F)F)c(F)c1` [ID 900], the inhibition at 0.3 µM is above 76% and the IC50 was 40.2 nM.
Take `Cc1ccc(C)c(CC(=O)Nc2cccc3c(=O)n(-c4cc(C)on4)ccc23)c1` [ID 716]: the inhibition at 0.1 µM was in the range of 0 to 25%.
Same read-out and setting: to `CCOC(=O)N1CCC(n2ccc3c(NC(=O)c4cc(Cl)cc(Cl)c4)cccc3c2=O)CC1` [ID 768] belongs 0 to 25%; to `COc1cccc(CC(=O)Nc2cccc3c(=O)n(-c4cc(C)on4)ccc23)c1` [ID 730], 0 to 25%.
Same read-out and setting: the result for `CCOC(=O)N1CCC(n2ccc3c(NC(=O)c4ccc(Cl)c(C)c4)cccc3c2=O)CC1` [ID 760] reads 0 to 25%.
For `CC(C(=O)Nc1cccc2c(=O)n(C3CCNCC3)ccc12)c1ccc(Cl)cc1` (stereo not shown) [ID 817], the inhibition at 0.3 µM was 0 to 25% and the IC50 worked out at 902 nM.
Taken in the same sequence, the figures for `O=C(Cc1ccc(Cl)c(Cl)c1)Nc1cccc2c(=O)n(C3CCNC3)ccc12` (stereo not shown) [ID 815] were above 76% and 125 nM.
For `O=C(Cc1ccc(Cl)c(Cl)c1)Nc1cccc2c(=O)n(C3CCC3)ccc12` [ID 898], in that order: above 76% and 23.6 nM.
Consider `CCOC(=O)N1CCC(n2ccc3c(NC(=O)c4ccccc4C)cccc3c2=O)CC1` [ID 764], for which the inhibition at 0.1 µM fell in the range of 0 to 25%.
Turning to `O=C(CC12CC3CC(CC(C3)C1)C2)Nc1cccc2c(=O)n(C3CC3)ccc12` [ID 889], the inhibition at 0.3 µM was above 76% and the 50% inhibitory concentration (IC50) worked out at 0.777 nM.
As for `CCOC(=O)N1CCC(n2ccc3c(NC(=O)Cc4ccc5c(c4)OCO5)cccc3c2=O)CC1` [ID 790], the inhibition at 0.1 µM lay within 0 to 25%.
Still for that read-out and setting: the result for `COc1ccc(C(=O)Nc2cccc3c(=O)n(-c4cc(C)on4)ccc23)cc1C` [ID 744] reads 0 to 25%.
`O=C(Cc1ccc(C(F)(F)F)c(F)c1)Nc1cccc2c(=O)n(C3CCC3)ccc12` [ID 892]: the inhibition at 0.3 µM is above 76% and the concentration for half-maximal inhibition (IC50) came to 22.1 nM.
Take `CCOC(=O)N1CCC(n2ccc3c(NC(=O)c4cccc(C)c4C)cccc3c2=O)CC1` [ID 765]: the inhibition at 0.1 µM is 0 to 25%.
Turning to `O=C(Cc1ccc(F)c(Cl)c1)Nc1cccc2c(=O)n(C3CCC3)ccc12` [ID 893], the inhibition at 0.3 µM is above 76% and the IC50 is 48.3 nM.
As to `CCOC(=O)N1CCC(n2ccc3c(NC(=O)CCc4ccc(OC)cc4)cccc3c2=O)CC1` [ID 776], the inhibition at 0.1 µM lay in the range of 0 to 25%.
As for `CCOC(=O)N1CCC(n2ccc3c(NC(=O)CC4C[C@@H]5CC[C@H]4C5)cccc3c2=O)CC1` (stereo partly shown) [ID 795], the inhibition at 0.1 µM was 0 to 25%.
Consider `O=C(Cc1ccc(C(F)(F)F)cc1)Nc1cccc2c(=O)n(C3CC3)ccc12` [ID 877], for which the inhibition at 0.3 µM was above 76% and the concentration for half-maximal inhibition (IC50) was found to be 23.7 nM.
Turning to `CCOC(=O)N1CCC(n2ccc3c(NC(=O)c4cc(C)ccc4C)cccc3c2=O)CC1` [ID 767], the inhibition at 0.1 µM was 0 to 25%.
For `O=C(CC1CCCCCC1)Nc1cccc2c(=O)n(C3CCNC3)ccc12` (stereo not shown) [ID 820], the inhibition at 0.3 µM was above 76% and the IC50 was 25.7 nM.
As to `CCOC(=O)N1CCC(n2ccc3c(NC(=O)Cc4c(C)cc(C)cc4C)cccc3c2=O)CC1` [ID 754], the inhibition at 0.1 µM fell in the range of 0 to 25%.
Regarding `O=C(Cc1ccc(Cl)c(C(F)(F)F)c1)Nc1cccc2c(=O)n(-c3cccnc3F)ccc12` [ID 870], the inhibition at 0.3 µM was above 76% and the IC50 was 4.97 nM.
Taken in the same sequence, the figures for `O=C(Cc1ccc(Cl)c(F)c1)Nc1cccc2c(=O)n(C3CC3)ccc12` [ID 882] were above 76% and 6.04 nM.
`CCOC(=O)N1CCC(n2ccc3c(NC(=O)Cc4cc(C)cc(C)c4)cccc3c2=O)CC1` [ID 802]: the inhibition at 0.1 µM fell in the range of 0 to 25%.
Same read-out and setting: to `CCOC(=O)N1CCC(n2ccc3c(NC(=O)C(C)c4ccccc4)cccc3c2=O)CC1` (stereo not shown) [ID 774] belongs 0 to 25%; to `CCOC(=O)N1CCC(n2ccc3c(NC(=O)CCCc4ccccc4)cccc3c2=O)CC1` [ID 788], 0 to 25%.
For `Cc1ncccc1-n1ccc2c(NC(=O)Cc3ccc(Cl)cc3F)cccc2c1=O` [ID 859], the inhibition at 0.3 µM is above 76% and the IC50 was determined as 50.1 nM.
In the case of `CCOC(=O)N1CCC(n2ccc3c(NC(=O)C4C[C@@H]5CC[C@H]4C5)cccc3c2=O)CC1` (stereo partly shown) [ID 803], the inhibition at 0.1 µM was 0 to 25%.
In the case of `O=C(CC1CCCCCC1)Nc1cccc2c(=O)n(-c3cc[nH]n3)ccc12` [ID 844], the inhibition at 0.3 µM was above 76% and the 50% inhibitory concentration (IC50) is 3.33 nM.
For `Cc1ccc2c(=O)n([C@H]3CCNC3)ccc2c1NC(=O)Cc1ccc(F)c(C(F)(F)F)c1` [ID 901], in that order: above 76% and 11 nM.
For the molecule `Cc1ccc(CCC(=O)Nc2cccc3c(=O)n(-c4cc(C)on4)ccc23)c(C)c1` [ID 745], the inhibition at 0.1 µM was in the range of 0 to 25%.
Still for that read-out and setting: to `CCOC(=O)N1CCC(n2ccc3c(NC(=O)Cc4ccccc4Cl)cccc3c2=O)CC1` [ID 778] belongs 0 to 25%.
On to `CCOC(=O)N1CCC(n2ccc3c(NC(=O)[C@@]45C[C@@H]6C[C@@H](C[C@@H]4C6)C5)cccc3c2=O)CC1` [ID 797], for which the inhibition at 0.1 µM is 0 to 25%.
The same measure, in the same setting: the result for `CCOC(=O)N1CCC(n2ccc3c(NC(=O)Cc4ccccc4F)cccc3c2=O)CC1` [ID 777] reads 0 to 25%.
In the case of `O=C(Cc1ccc(Cl)c(C(F)(F)F)c1)Nc1cccc2c(=O)n(C3CCNCC3)ccc12` [ID 818], the inhibition at 0.3 µM is above 76% and the concentration for half-maximal inhibition (IC50) was 99 nM.
Turning to `CCOC(=O)N1CCC(n2ccc3c(NC(=O)Cc4ccc(OC)cc4OC)cccc3c2=O)CC1` [ID 804], the inhibition at 0.1 µM lay in the range of 0 to 25%.
Same read-out and setting: to `CCOC(=O)N1CCC(n2ccc3c(NC(=O)c4ccc(OC)cc4C)cccc3c2=O)CC1` [ID 749] belongs 0 to 25%.
Regarding `CCOC(=O)N1CCC(n2ccc3c(NC(=O)c4ccc(OC)c(C)c4)cccc3c2=O)CC1` [ID 809], the inhibition at 0.1 µM is 0 to 25%.
Same read-out and setting: to `CCOC(=O)N1CCC(n2ccc3c(NC(=O)Cc4cccc(C)c4)cccc3c2=O)CC1` [ID 784] belongs 0 to 25%.
As to `Cc1cc(-n2ccc3c(NC(=O)c4cccc(C)c4Cl)cccc3c2=O)no1` [ID 743], the inhibition at 0.1 µM was 0 to 25%.

What is called IC50 is the concentration that gives 50% inhibition.
